Source: patent publication US20260109707A1, “HETEROBIFUNCTIONAL COMPOUNDS AND METHODS OF TREATING DISEASE” (Halda Therapeutics OpCo. Inc., priority 2022, published 2026)
Where two headings read alike, the source gives them in different places.

Key:
VCaP cells = assay: Cellular growth inhibition assay for VCaP cells (CellTiter-Glo, 72 hours); assay type: cell-based, human
Protocol: VCaP cells were purchased from American Type Cell Culture (ATCC Cat #CRL2876) and then seeded on poly-D-lysine coated, black clear-bottom 384-well plates at 5000/well in 25 μL Dulbecco's Modified Eagle Medium (DMEM) supplemented with 10% w/w Fetal bovine serum (FBS) and 1% w/w Pen-Strep. Pen-Strep is a commercially available mixture of penicillin G and streptomycin, which is used in mammalian cell culture media to prevent bacterial contamination. Dulbecco's Modified Eagle Medium (DMEM) supplemented with 10% w/w fetal bovine serum (FBS) and 1% w/w Pen-Strep is herein referred to as Treatment Medium. Following seeding of cells in the plates, the plates were spun at 300×g for 30 seconds, then equilibrated to room temperature for 30 minutes, and then deposited in a humidified tissue culture incubator maintained at 37° C. with 5% C0-2.
(§1) At 24 hours after seeding of the cells, dilutions of test compound were prepared in DMSO and dissolved in Treatment Medium, to achieve a final DMSO concentration of 0.5% w/w, thereby providing the Test Compound Solution. A 25 μL aliquot of the Test Compound Solution was added to cells in the well plates. An equal volume of a solution containing DMSO and Treatment Medium was used as a negative control. Following treatment of cells with Test Compound Solution or said equal volume of a solution containing DMSO and Treatment Medium, the plates were spun at 300×g for 30 seconds, and then left in an incubator for 72 hours.
(§2) At the end of the treatment duration, cell viability was quantified with CellTiter-Glo 2.0 reagent (Promega Cat #G9243). For this purpose, plates were equilibrated to room temperature for 30 minutes, and then 25 μL of CellTiter-Glo 2.0 reagent was added to cells in the plate wells. Plates were then agitated on a shaker for two minutes at 500 rpm and subsequently incubated at room temperature for 10 minutes. Following incubation, the plates were spun at 3000×g for 30 seconds, then sealed with an optical adhesive cover, and luminescence readings were measured with an EnVision Plate Reader.
(§3) Data was normalized using zero luminescence for baseline. A four-parameter non-linear regression curve fit was applied to dose-response data in GraphPad Prism data analysis software to determine the half-maximal growth inhibitory concentration (GI50) for each test compound.

[1] = system: T-Rex 293 cell line SC3 cells lacking increased expression of androgen receptor protein; assay: Cellular growth inhibition assay, T-Rex 293 SC3 cells without doxycycline (CellTiter-Glo, 72 hours); assay type: cell-based; conditions: T-Rex 293 cell line SC3 cells not exposed to doxycycline (lacking increased androgen receptor expression)
Protocol: (§4) The following types of cells were prepared for this experiment: (i) a T-Rex 293 cell line having increased expression of androgen receptor protein due to exposure to doxycycline and (ii) a T-Rex 293 cell line lacking increased expression of androgen receptor protein. Ability of the test compounds to inhibit proliferation of the foregoing cell types was evaluated according to the procedures set forth below.
(§5) The doxycycline-inducible androgen receptor protein expressing cell line was established using the following protocol: T-Rex 293 cells were purchased from Invitrogen (Cat #R71007) and transfected using Lipofectamine 2000 with the wild-type androgen receptor protein sequence cloned into the pcDNA4/TO vector. Transfected cells were selected using 400 μg/mL Zeocin (Invitrogen Cat #R25001). Following selection, single clones were raised and maintained in Dulbecco's Modified Eagle Medium (DMEM) supplemented with 10% w/w Tetracycline-free fetal bovine serum (FBS) and 250 μg/mL Zeocin. Clones were analyzed for expression of androgen receptor protein in the presence and absence of 10 ng/mL doxycycline (Sigma Cat #D9891), and a single doxycycline-inducible clone (hereinafter “SC3”) was selected for use in downstream assays.
(§6) The SC3 cells were seeded on poly-D-lysine coated, black clear-bottom 384-well plates at 2500/well, in 25 μL Phenol Red Free Dulbecco's Modified Eagle Medium (DMEM) supplemented with 10% w/w charcoal-dextran treated fetal bovine serum (FBS) and 1% w/w pen-strep, with or without 10 ng/mL doxycycline. Pen-Strep is a commercially available mixture of penicillin G and streptomycin, which is used in mammalian cell culture media to prevent bacterial contamination. Phenol Red Free Dulbecco's Modified Eagle Medium (DMEM) supplemented with 10% w/w charcoal-dextran treated fetal bovine serum (FBS) and 1% w/w pen-strep, with or without 10 ng/mL doxycycline is herein referred to as Treatment Medium. Following seeding of cells in the plates, the plates were spun at 300×g for 30 seconds, then equilibrated to room temperature for 30 minutes, and then deposited in a humidified tissue culture incubator maintained at 37° C. with 5% CO2.
as §1, §2, §3

[2] = system: T-Rex 293 cell line SC3 cells having increased expression of androgen receptor protein due to exposure to doxycycline; assay: Cellular growth inhibition assay, T-Rex 293 SC3 cells with doxycycline (CellTiter-Glo, 72 hours); assay type: cell-based; conditions: T-Rex 293 SC3 cells with increased androgen receptor expression due to doxycycline (10 ng/mL)
Protocol: as §4, §5, §6, §1, §2, §3

Row | Structure (SMILES) | GI50 (VCaP cells; Homo sapiens, VCaP, 72 h) | GI50 ([1]; 72 h) | GI50 ([2]; 72 h) | GI50 (VCaP cells) | GI50 [1] | GI50 [2]
1 | Cc1sc2c(c1C)C(Oc1ccc(C3CC4(CCN(c5ccc(C(=O)N[C@H]6CC[C@H](Oc7ccc(C#N)c(Cl)c7)CC6)nn5)CC4)C3)cc1)=NC(Cc1ncco1)c1nnc(C)n1-2 (stereo partly drawn) [I-631] | < 500 nM | > 3000 nM | > 3000 nM |  |  | 
2 | Cc1sc2c(c1C)C(c1ccc(NCC3CCN(c4ncc(C(=O)N[C@H]5CC[C@H](Oc6ccc(C#N)c(Cl)c6)CC5)cn4)CC3)cc1)=NC(Cc1ncco1)c1nnc(C)n1-2 (stereo partly drawn) [I-786] | < 500 nM | < 500 nM | < 500 nM |  |  | 
3 | Cc1sc2c(c1C)C(c1ccc(C3CCC4(CCCN(c5ccc(C(=O)N[C@H]6CC[C@H](Oc7ccc(C#N)c(Cl)c7)CC6)nn5)C4)CC3)cc1)=NC(C(F)(F)F)c1nnc(C)n1-2 (stereo partly drawn) [I-695] |  |  |  | > 3000 nM | > 3000 nM | > 3000 nM
4 | Cc1sc2c(c1C)C(c1ccc(CC3CC4(CCN(c5ccc(C(=O)N[C@H]6CC[C@H](Oc7ccc(C#N)c(Cl)c7)CC6)nn5)CC4)C3)cc1)=NC1(CC1)c1nnc(C)n1-2 [I-444] | < 500 nM | > 3000 nM | < 500 nM |  |  | 
5 | Cc1sc2c(c1C)C(c1cccc(N3CCC4(CCN(c5ccc(C(=O)N[C@H]6CC[C@H](Oc7ccc(C#N)c(Cl)c7)CC6)nn5)C4)C3)c1)=N[C@@H](C)c1nnc(C)n1-2 (stereo partly drawn) [I-682] | 500 to 1500 nM |  | < 500 nM |  | 500 to 1500 nM | 
6 | Cc1sc2c(c1C)C(c1ccc(CCCC3CCCN(c4ccc(C(=O)N[C@H]5CC[C@H](Oc6ccc(C#N)c(Cl)c6)CC5)nn4)CC3)cc1)=N[C@@H](C)c1nnc(C)n1-2 (stereo partly drawn) [I-670] |  |  |  | < 500 nM | < 500 nM | < 500 nM
7 | COCC[C@@H]1N=C(c2ccc(C3CCC4(CCN(c5ccc(C(=O)N[C@H]6CC[C@H](Oc7ccc(C#N)c(Cl)c7)CC6)nn5)CC4)C3)cc2)c2c(sc(C)c2C)-n2c(C)nnc21 (stereo partly drawn) [I-616] |  | < 500 nM | < 500 nM | > 3000 nM |  | 
8 | Cc1sc2c(c1C)C(c1ccc(OC3CC4(C3)CC3(CCN(c5ccc(C(=O)N[C@H]6CC[C@H](Oc7ccc(C#N)c(Cl)c7)CC6)nn5)CC3)C4)nc1)=NC1(CC1)c1nnc(C)n1-2 [I-504] | < 500 nM | 500 to 1500 nM | < 500 nM |  |  | 
9 | Cc1sc2c(c1C)C(c1ccc(C3CCC4(CC3)CCN(c3ccc(C(=O)N[C@H]5CC[C@H](Oc6ccc(C#N)c(Cl)c6)CC5)nn3)CC4)cc1)=NC1(CC1)c1nnc(C)n1-2 [I-532] | < 500 nM | > 3000 nM | < 500 nM |  |  | 
10 | Cc1sc2c(c1C)C(c1ccc(OCC3CC4(CCCN(c5ccc(C(=O)N[C@H]6CC[C@H](Oc7ccc(C#N)c(Cl)c7)CC6)nn5)C4)C3)cn1)=NC1(CC1)c1nnc(C)n1-2 (stereo partly drawn) [I-561] |  |  | < 500 nM | > 3000 nM | 500 to 1500 nM | 
11 | Cc1sc2c(c1C)C(c1ccc(N3CC(C4CCN(c5ccc(C(=O)N[C@H]6CC[C@H](Oc7ccc(C#N)c(Cl)c7)CC6)nn5)CC4)C3)nc1)=NCc1nnc(C)n1-2 [I-478] | < 500 nM | > 3000 nM | < 500 nM |  |  | 
12 | Cc1sc2c(c1C)C(c1ccc(OC3CCC4(CCN(c5ccc(C(=O)N[C@H]6CC[C@H](Oc7ccc(C#N)c(Cl)c7)CC6)nn5)C4)C3)cc1)=N[C@@H](C)c1nnc(C)n1-2 (stereo partly drawn) [I-702] |  |  |  | < 500 nM | 500 to 1500 nM | < 500 nM
13 | Cc1sc2c(c1C)C(c1ccc(OCC3CC4(CCCN(c5ccc(C(=O)N[C@H]6CC[C@H](Oc7ccc(C#N)c(Cl)c7)CC6)nn5)C4)C3)cc1)=NCc1nnc(C)n1-2 (stereo partly drawn) [I-489] |  |  |  | < 500 nM | > 3000 nM | < 500 nM
14 | Cc1sc2c(c1C)C(c1ccc(OCC3CCC4(C3)CN(c3ccc(C(=O)N[C@H]5CC[C@H](Oc6ccc(C#N)c(Cl)c6)CC5)nn3)CCO4)cc1)=N[C@@H](C)c1nnc(C)n1-2 (stereo partly drawn) [I-639] |  |  |  | > 3000 nM | > 3000 nM | < 500 nM
15 | Cc1sc2c(c1C)C(c1ccccc1OC1CCC3(CC1)CCN(c1ccc(C(=O)N[C@H]4CC[C@H](Oc5ccc(C#N)c(Cl)c5)CC4)nn1)C3)=N[C@@H](C)c1nnc(C)n1-2 (stereo partly drawn) [I-753] |  |  |  | < 500 nM | < 500 nM | < 500 nM
16 | Cc1sc2c(c1C)C(c1ccc(N3CCC4(CC3)CCN(c3ccc(C(=O)N[C@H]5CC[C@H](Oc6ccc(C#N)c(Cl)c6)CC5)nn3)C4)cc1)=NC(C(F)(F)F)c1nnc(C)n1-2 (single isomer, unassigned) [I-719] |  |  |  | < 500 nM | > 3000 nM | < 500 nM
17 | Cc1sc2c(c1C)C(c1ccc(C3CCC4(CCN(c5ccc(C(=O)N[C@H]6CC[C@H](Oc7ccc(C#N)c(Cl)c7)CC6)nn5)CC4)C3)cc1)=NC(C(F)(F)F)c1nnc(C)n1-2 (stereo partly drawn) [I-758] |  |  |  | > 3000 nM | > 3000 nM | > 3000 nM
18 | Cc1sc2c(c1C)C(c1ccc(OC3(C)CC4(CN(c5ccc(C(=O)N[C@H]6CC[C@H](Oc7ccc(C#N)c(Cl)c7)CC6)nn5)C4)C3)cc1)=N[C@@H](Cc1ncco1)c1nnc(C)n1-2 [I-468] | < 500 nM | < 500 nM | < 500 nM |  |  | 
19 | Cc1sc2c(c1C)C(c1ccc(N3CCCC(CN(C)c4ncc(C(=O)N[C@H]5CC[C@H](Oc6ccc(C#N)c(Cl)c6)CC5)cn4)C3)cc1)=NC(Cc1ncco1)c1nnc(C)n1-2 (stereo partly drawn) [I-797, N-((1r,4r)-4-(3-chloro-4-cyanophenoxy)cyclohexyl)-2-(methyl((1-(4-(2,3,9-trimethyl-6-(oxazol-2-ylmethyl)-6H-thieno[3,2-f][1,2,4]triazolo[4,3-a][1,4]diazepin-4-yl)phenyl)piperidin-3-yl)methyl)amino)pyrimidine-5-carboxamide] | < 500 nM | < 500 nM | < 500 nM |  |  | 
20 | Cc1sc2c(c1C)C(c1ccc(OCC3CC4(CCCN(c5ccc(C(=O)N[C@H]6CC[C@H](Oc7ccc(C#N)c(Cl)c7)CC6)nn5)C4)C3)nc1)=NC1(CC1)c1nnc(C)n1-2 (stereo partly drawn) [I-487] |  |  |  | < 500 nM | > 3000 nM | < 500 nM
21 | Cc1sc2c(c1C)C(c1ccc(NC3CC4CCCC(C3)N4c3ncc(C(=O)N[C@H]4CC[C@H](Oc5ccc(C#N)c(Cl)c5)CC4)cn3)cc1)=NC(Cc1ncco1)c1nnc(C)n1-2 (stereo partly drawn) [I-799] | < 500 nM |  |  |  | > 3000 nM | < 500 nM
22 | Cc1sc2c(c1C)C(c1ccc(C3CCC4(CC3)CCN(c3ccc(C(=O)N[C@H]5CC[C@H](Oc6ccc(C#N)c(Cl)c6)CC5)nn3)C4)nc1)=N[C@@H](C)c1nnc(C)n1-2 (stereo partly drawn) [I-534] |  |  |  | > 3000 nM | < 500 nM | < 500 nM
23 | CC[C@@H]1N=C(c2ccc(C3CCC4(CC3)CCN(c3ccc(C(=O)N[C@H]5CC[C@H](Oc6ccc(C#N)c(Cl)c6)CC5)nn3)C4)cc2)c2c(sc(C)c2C)-n2c(C)nnc21 (single isomer, unassigned) [I-633] |  |  |  | 1500 to 3000 nM | < 500 nM | < 500 nM
24 | Cc1sc2c(c1C)C(c1ccc(OCC3CC4(CCCN(c5ccc(C(=O)N[C@H]6CC[C@H](Oc7ccc(C#N)c(Cl)c7)CC6)nn5)C4)C3)cc1)=NCc1nnc(C)n1-2 (stereo partly drawn) [I-447] |  |  |  | > 3000 nM | > 3000 nM | < 500 nM
25 | Cc1sc2c(c1C)C(c1ccc(N3CCC4(CC3)CCN(c3ccc(C(=O)N[C@H]5CC[C@H](Oc6ccc(C#N)c(Cl)c6)CC5)nn3)CC4)cc1)=NC1(CC1)c1nnc(C)n1-2 [I-490] | > 3000 nM | > 3000 nM | < 500 nM |  |  | 
